What all share (experiment): relative viability (nuclei count vs DMSO), 5 days (fraction); higher = more cells survive
Compound in test [1]: C1CC(C1)(C(=O)O)C(=O)O.[NH2-].[NH2-].[Pt+2] [Carboplatin] + CC1(C)CCC(c2ccc(Cl)cc2)=C(CN2CCN(c3ccc(C(=O)NS(=O)(=O)c4ccc(N[C@H](CCN5CCOCC5)CSc5ccccc5)c(S(=O)(=O)C(F)(F)F)c4)cc3)CC2)C1 [Navitoclax] (partner 0.5 µM)
In outline: (§1)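 Each reported value is a median over duplicate plates. It expresses relative viability: treated-well nuclei count divided by vehicle-well nuclei count. Lung cancer cell lines in 1536-well plates were dosed by pin tool a day after seeding, alone with one drug or with a fixed anchor-drug dose plus five library-drug doses (not always all listed) in √10 steps, and nuclei were counted after 5 days.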

Compound in test [2]: CC[C@H](C)N1C=C(C2=C(C=C(C=C21)C3=CN=C(C=C3)N4CCNCC4)C(=O)NCC5=C(C=C(NC5=O)C)C)C [GSK126] + Cc1nc(NC(=O)N2CCC[C@H]2C(N)=O)sc1-c1ccnc(C(C)(C)C(F)(F)F)c1 [Alpelisib] (partner 2 µM)
In outline:
as §1

Compound in test [3]: CC[C@H](C)N1C=C(C2=C(C=C(C=C21)C3=CN=C(C=C3)N4CCNCC4)C(=O)NCC5=C(C=C(NC5=O)C)C)C [GSK126] + Nc1nc2[nH]cc(CCc3ccc(C(=O)N[C@@H](CCC(=O)O)C(=O)O)cc3)c2c(=O)[nH]1 [Pemetrexed] (partner 0.2 µM)
Summed up: as §1

Compound in test [4]: NS(=O)(=O)OC[C@@H]1C[C@@H](n2ccc3c(N[C@H]4CCc5ccccc54)ncnc32)C[C@@H]1O [MLN4924] + Cc1cc(Nc2cc(N3CCN(C)CC3)nc(Sc3ccc(NC(=O)C4CC4)cc3)n2)n[nH]1 [Tozasertib] (partner 0.1 µM)
Summed up:
as §1

On to UMC-11, for which the relative viability in test [1] (first compound 0.08 µM) is 0.325; in test [1] (first compound 0.253 µM), 0.355; in test [1] (first compound 0.8 µM) it was 0.342; in test [1] (first compound 2.53 µM), 0.313; in test [1] (first compound 8 µM) it was 0.256; in test [2] (first compound 0.08 µM), 1.03. Also, the relative viability in test [2] (first compound 0.253 µM) was 1.1; in test [2] (first compound 0.8 µM), 0.983; in test [2] (first compound 2.53 µM) it was 0.961; in test [2] (first compound 8 µM), 1.17; in test [3] (first compound 0.08 µM) it was 0.841; in test [3] (first compound 0.253 µM), 0.749. In addition, the relative viability in test [3] (first compound 0.8 µM) is 0.756; in test [3] (first compound 2.53 µM) it was 0.744; in test [3] (first compound 8 µM), 0.831; in test [4] (first compound 0.04 µM) it was 0.205; in test [4] (first compound 0.1265 µM) it was 0.212; in test [4] (first compound 0.4 µM) it was 0.215. In addition, the relative viability is 0.19 in test [4] (first compound 1.265 µM) and 0.184 in test [4] (first compound 4 µM).

For the origin of these results see the supplement of paper PMC10307832.
